According to PMC5120204, “Identification of an orally active small-molecule PTHR1 agonist for the treatment of hypoparathyroidism” (Nature Communications, 2016):

Target: T1, hPTHR1 (Homo sapiens, UniProt Q03431)
T1 construct: similar to that of cells expressing full-length hPTHR1; expressed in transfected cells; host or cells: COS-7 (transient, FuGENE HD)
T1 sequence (Q03431 27-593 E93Y/D94P/K95Y/E96D/A97V/T99D/G100Y/S101A): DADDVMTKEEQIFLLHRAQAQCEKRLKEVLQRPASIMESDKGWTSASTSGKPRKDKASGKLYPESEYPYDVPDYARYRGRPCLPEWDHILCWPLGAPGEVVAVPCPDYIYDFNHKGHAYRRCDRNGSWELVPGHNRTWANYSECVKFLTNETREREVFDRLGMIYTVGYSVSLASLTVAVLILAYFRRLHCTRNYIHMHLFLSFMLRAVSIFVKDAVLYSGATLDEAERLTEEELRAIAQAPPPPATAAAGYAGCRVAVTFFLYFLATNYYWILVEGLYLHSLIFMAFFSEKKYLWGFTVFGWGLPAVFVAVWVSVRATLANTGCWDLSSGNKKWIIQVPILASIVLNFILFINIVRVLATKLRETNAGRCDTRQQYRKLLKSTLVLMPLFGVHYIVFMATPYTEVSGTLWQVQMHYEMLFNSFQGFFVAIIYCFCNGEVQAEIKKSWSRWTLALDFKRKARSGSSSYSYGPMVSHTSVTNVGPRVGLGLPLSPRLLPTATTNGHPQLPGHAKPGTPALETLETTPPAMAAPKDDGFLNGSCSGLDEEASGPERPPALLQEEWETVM
Experiment: Phospholipase C activity assay ([3H]-inositol phosphate) in COS-7 cells expressing hPTHR1
Type: cell-based
Conditions: COS-7 cells expressing hPTHR1, 40 min; concentration that achieves the EC50 for hPTH(1–34)
Experimental: COS-7 cells (ATCC) were seeded into a 96-well flat-bottomed plate (1.4 × 10^4 cells per 100 μl per well) and incubated overnight. The next day, the COS-7 cells were transfected by adding 10 μl of a mixture of hPTHR1 plasmid or empty vector (0.1 μg per well), FuGENE HD Transfection Reagent (0.4 μl per well, Promega), and Opti-MEM I Reduced Serum Medium (10 μl per well, Life Technologies) to each well. On the second day after the cells were seeded into the plate, the culture medium in the wells was discarded, and 100 μl of ^3H-myoinositol/0.1% BSA/DMEM adjusted to 111 kBq ml^−1 (PerkinElmer, Inc.) was added to each well. […] After that, the ^3H radioactivity was measured using a liquid scintillation analyzer. EC50 values were determined from three independent experiments in […] by a non-linear regression Emax model (JMP ver.9.0.2, SAS Institute). […] The geometric means of the EC50 values obtained in three experiments in duplicate were calculated using Microsoft Office Excel 2007.

SMILES: Cc1cc(N2C(=O)NC(=O)C2(C)C)cc(C)c1CCS(=O)(=O)N1CCC2(CC1)N=C(c1ccc(OC(F)(F)F)cc1)NC2=O [PCO371, 1-{3,5-dimethyl-4-[2-({4-oxo-2-[4-(trifluoromethoxy)phenyl]-1,3,8-triazaspiro[4.5]dec-1-en-8-yl}sulfonyl)ethyl]phenyl}-5,5-dimethylimidazolidine-2,4-dione]
- EC50: 17 µM
